Experimental data from patent US9353107B2 (Aurigene Discovery Technologies Limited, priority 2012, dated 2016).

Molecular target: T1, recombinant human ALK enzyme (ALK WT) (Homo sapiens, UniProt Q9UM73)
T1 construct: purchased Carna Biosciences 08-518
Experiment: ALK WT cell free enzymatic assay (TR-FRET)
Assay type: biochemical
Details: 1 μM ATP; for IC50: 10 point dose response; for inhibition at 1 µM: compound at 1 μM; for inhibition at 1 µM / inhibition at 0.1 µM: 30 min pre-incubation; for inhibition at 0.1 µM: compound at 100 nM
Procedure: ALK Wild Type (WT) The ALK WT cell free assay was set up to evaluate the effects of these compounds as inhibitors of ALK enzyme. The enzymatic assay was standardized using recombinant human ALK enzyme (Cat#08-518) from Carna Biosciences using Ultra Light Poly GT (Cat# TRF 0100D) from Perkin Elmer as a substrate. TR-FRET (Time resolved fluorescence resonance energy transfer) detection technology was used for the read out. The final assay conditions were 50 mM HEPES pH 7.1, 10 mM MgCl2, 2 mM MnCl2, 0.01% BSA, 2.5 mM DTT, 0.1 mM Na3 VO4, 40 nM Ultra Light Poly GT, 2.5 ng ALK WT enzyme, 1 μM ATP and 125 nM Lance Eu-W1024 labeled anti phospho tyrosine antibody (Cat# AD0203, Perkin Elmer) in 384 well format. The assay reaction time with the substrate was 30 minutes after which the antibody detection mix is added. The TR-FRET signal (Excitation at 340 nm, Emission at 615 nm and 665 nm) was read with 50 μs delay time on Victor^3 V fluorimeter. The data is calculated using the ratio of reading at 665 nM to 615 nM. The final concentration of DMSO was 1% in the assay. Compounds were screened at 100 nM and 1 μM concentrations with pre-incubation of the enzymes with compound for 30 minutes. Each individual IC50 was determined using 10 point dose response curve generated by GraphPad Prism software Version 4 (San Diego, Calif., USA) using non linear regression curve fit for sigmoidal dose response (variable slope). Percentage inhibition at concentrations of 100 nM and 1.0 μM are given in table along with the IC50 (nM) details for selected examples.

T1 sequence (Q9UM73 1058-1620 limits assumed): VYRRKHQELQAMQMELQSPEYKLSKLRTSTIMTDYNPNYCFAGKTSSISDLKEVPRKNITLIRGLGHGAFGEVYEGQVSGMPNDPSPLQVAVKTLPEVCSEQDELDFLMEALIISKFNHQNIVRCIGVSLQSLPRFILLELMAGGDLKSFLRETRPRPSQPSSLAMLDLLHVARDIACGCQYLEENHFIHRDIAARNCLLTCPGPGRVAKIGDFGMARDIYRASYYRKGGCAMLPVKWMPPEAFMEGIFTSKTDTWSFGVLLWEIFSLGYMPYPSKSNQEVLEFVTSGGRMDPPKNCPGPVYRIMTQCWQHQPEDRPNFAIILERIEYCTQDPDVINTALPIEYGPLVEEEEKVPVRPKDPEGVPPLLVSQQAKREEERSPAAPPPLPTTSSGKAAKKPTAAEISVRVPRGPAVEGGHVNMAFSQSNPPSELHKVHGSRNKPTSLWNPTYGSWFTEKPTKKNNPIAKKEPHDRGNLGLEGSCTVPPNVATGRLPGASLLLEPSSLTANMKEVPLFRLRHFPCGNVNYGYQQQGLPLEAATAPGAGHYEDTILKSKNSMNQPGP

`CS(=O)(=O)Nc1cccc(-c2cnc3[nH]cc(-c4cnn(Cc5ccccc5F)c4)c3c2)c1` [Example 1, N-(3-(3-(1-(2-fluorobenzyl)-1H-pyrazol-4-yl)-1H-pyrrolo[2,3-b]pyridin-5-yl)phenyl)methanesulfonamide] was tested, and the IC50 was 50 to 250 nM and the inhibition at 1 µM was 92%.
For `CS(=O)(=O)Nc1cccc(-c2cnc3[nH]cc(-c4cnn(Cc5cccc(C(F)(F)F)c5)c4)c3c2)c1` [Example 2, N-(3-(3-(1-(3-(trifluoromethyl)benzyl)-1H-pyrazol-4-yl)-1H-pyrrolo[2,3-b]pyridin-5-yl)phenyl) methanesulfonamide], the IC50 was over 250 nM and the inhibition at 1 µM was 33%.
Compound `COc1ccc(Cn2cc(-c3c[nH]c4ncc(-c5cccc(NS(C)(=O)=O)c5)cc34)cn2)cc1` [Example 3, N-(3-(3-(1-(4-methoxybenzyl)-1H-pyrazol-4-yl)-1H-pyrrolo[2,3-b]pyridin-5-yl)phenyl)n methane sulfonamide] has an IC50 of over 250 nM and an inhibition at 1 µM of 65%.
Work on `CS(=O)(=O)Nc1cccc(-c2cnc3[nH]cc(-c4cnn(Cc5cc(F)ccc5F)c4)c3c2)c1` [Example 4, N-(3-(3-(1-(2,5-difluorobenzyl)-1H-pyrazol-4-yl)-1H-pyrrolo[2,3-b]pyridin-5-yl)phenyl)methane sulfonamide] yielded an IC50 of 50 to 250 nM and an inhibition at 1 µM of 95%.
`CS(=O)(=O)Nc1cccc(-c2cnc3[nH]cc(-c4cnn(Cc5ccc(F)cc5)c4)c3c2)c1` [Example 5, N-(3-(3-(1-(4-fluorobenzyl)-1H-pyrazol-4-yl)-1H-pyrrolo[2,3-b]pyridin-5-yl)phenyl) methanesulfonamide] was tested, and the IC50 was 50 to 250 nM and the inhibition at 1 µM was 69%.
Work on `CS(=O)(=O)Nc1cccc(-c2cnc3[nH]cc(-c4cnn(Cc5cc(F)cc(F)c5)c4)c3c2)c1` [Example 6, N-(3-(3-(1-(3,5-difluorobenzyl)-1H-pyrazol-4-yl)-1H-pyrrolo[2,3-b]pyridin-5-yl)phenyl) methane sulfonamide] yielded an IC50 of under 50 nM and an inhibition at 1 µM of 99%.
Compound `CS(=O)(=O)Nc1cccc(-c2cnc3[nH]cc(-c4cnn(Cc5cccc([N+](=O)[O-])c5)c4)c3c2)c1` [Example 7, N-(3-(3-(1-(3-nitrobenzyl)-1H-pyrazol-4-yl)-1H-pyrrolo[2,3-b]pyridin-5-yl)phenyl)methane sulfonamide] has an inhibition at 0.1 µM of 20% and an inhibition at 1 µM of 53%.
Compound `CS(=O)(=O)Nc1cccc(-c2cnc3[nH]cc(-c4cnn(Cc5cccc(N)c5)c4)c3c2)c1` [Example 8, N-(3-(3-(1-(3-aminobenzyl)-1H-pyrazol-4-yl)-1H-pyrrolo[2,3-b]pyridin-5-yl)phenyl) methane sulfonamide] has an IC50 of under 50 nM, an inhibition at 0.1 µM of 81% and an inhibition at 1 µM of 97%.
`CS(=O)(=O)Nc1cccc(-c2cnc3[nH]cc(-c4cnn(Cc5cccc(F)c5)c4)c3c2)c1` [Example 9, N-(3-(3-(1-(3-fluorobenzyl)-1H-pyrazol-4-yl)-1H-pyrrolo[2,3-b]pyridin-5-yl)phenyl)methanesulfonamide] gave an IC50 of under 50 nM and an inhibition at 1 µM of 98%.
`CS(=O)(=O)Nc1cccc(-c2cnc3[nH]cc(-c4cnn(Cc5cccc(Cl)c5)c4)c3c2)c1` [Example 10, N-(3-(3-(1-(3-chlorobenzyl)-1H-pyrazol-4-yl)-1H-pyrrolo[2,3-b]pyridin-5-yl)phenyl)methane sulfonamide] showed an IC50 of 50 to 250 nM and an inhibition at 1 µM of 81%.
`CS(=O)(=O)Nc1cccc(-c2cnc3[nH]cc(-c4cnn(Cc5cccc(C#N)c5)c4)c3c2)c1` [Example 11, N-(3-(3-(1-(3-cyanobenzyl)-1H-pyrazol-4-yl)-1H-pyrrolo[2,3-b]pyridin-5-yl)phenyl)methane sulfonamide] was tested, and the IC50 was under 50 nM, the inhibition at 0.1 µM was 64% and the inhibition at 1 µM was 90%.
With `CS(=O)(=O)Nc1cccc(-c2cnc3[nH]cc(-c4cnn(Cc5ccccc5)c4)c3c2)c1` [Example 12, N-(3-(3-(1-benzyl-1H-pyrazol-4-yl)-1H-pyrrolo[2,3-b]pyridin-5-yl)phenyl) methanesulfonamide] the IC50 was over 250 nM and the inhibition at 1 µM was 87%.
`COc1ccc(-c2cnc3[nH]cc(-c4cnn(Cc5cccc(F)c5)c4)c3c2)cc1NS(C)(=O)=O` [Example 13, N-(5-(3-(1-(3-fluorobenzyl)-1H-pyrazol-4-yl)-1H-pyrrolo[2,3-b]pyridin-5-yl)-2-methoxyphenyl) methane sulfonamide] gave an IC50 of under 50 nM and an inhibition at 1 µM of 96%.
`COc1ccc(-c2cnc3[nH]cc(-c4c(C)nn(Cc5cccc(F)c5)c4C)c3c2)cc1NS(C)(=O)=O` [Example 14, N-(5-(3-(1-(3-fluorobenzyl)-3,5-dimethyl-1H-pyrazol-4-yl)-1H-pyrrolo[2,3-b]pyridin-5-yl)-2-methoxyphenyl)methanesulfonamide] showed an IC50 of under 50 nM and an inhibition at 1 µM of 95%.
Compound `CCS(=O)(=O)Nc1cc(-c2cnc3[nH]cc(-c4c(C)nn(Cc5cccc(F)c5)c4C)c3c2)ccc1OC` [Example 15, N-(5-(3-(1-(3-fluorobenzyl)-3,5-dimethyl-1H-pyrazol-4-yl)-1H-pyrrolo[2,3-b]pyridin-5-yl)-2-methoxyphenyl)ethanesulfonamide] has an inhibition at 0.1 µM of 33% and an inhibition at 1 µM of 75%.
`COc1ccc(-c2cnc3[nH]cc(-c4cnn(Cc5cccc(F)c5)c4)c3c2)cc1NS(=O)(=O)C1CC1` [Example 16, N-(5-(3-(1-(3-fluorobenzyl)-1H-pyrazol-4-yl)-1H-pyrrolo[2,3-b]pyridin-5-yl)-2-methoxyphenyl)cyclopropanesulfonamide] was tested, and the inhibition at 0.1 µM was 33% and the inhibition at 1 µM was 66%.
`CS(=O)(=O)Nc1cc(-c2cnc3[nH]cc(-c4cnn(Cc5cccc(F)c5)c4)c3c2)ccc1N1CCOCC1` [Example 17, N-(5-(3-(1-(3-fluorobenzyl)-1H-pyrazol-4-yl)-1H-pyrrolo[2,3-b]pyridin-5-yl)-2-morpholinophenyl)methanesulfonamide] was tested, and the inhibition at 0.1 µM was 13% and the inhibition at 1 µM was 53%.
`CNS(=O)(=O)c1cc(-c2cnc3[nH]cc(-c4c(C)nn(Cc5cccc(F)c5)c4C)c3c2)ccc1OC` [Example 18, 5-(3-(1-(3-fluorobenzyl)-3,5-dimethyl-1H-pyrazol-4-yl)-1H-pyrrolo[2,3-b]pyridin-5-yl)-2-methoxy-N-methylbenzenesulfonamide] was tested, and the IC50 was 50 to 250 nM, the inhibition at 0.1 µM was 62% and the inhibition at 1 µM was 94%.
Compound `COc1ccc(-c2cnc3[nH]cc(-c4c(C)nn(Cc5cc(F)cc(F)c5)c4C)c3c2)cc1NS(C)(=O)=O` [Example 19] has an IC50 of 50 to 250 nM, an inhibition at 0.1 µM of 63% and an inhibition at 1 µM of 96%.
For `CNS(=O)(=O)c1cc(-c2cnc3[nH]cc(-c4c(C)nn(Cc5cc(F)ccc5F)c4C)c3c2)ccc1OC` [Example 20, 5-(3-(1-(2,5-difluorobenzyl)-3,5-dimethyl-1H-pyrazol-4-yl)-1H-pyrrolo[2,3-b]pyridin-5-yl)-2-methoxy-N-methylbenzenesulfonamide], the IC50 was over 250 nM, the inhibition at 0.1 µM was 17% and the inhibition at 1 µM was 75%.
In the case of `CNS(=O)(=O)c1cc(-c2cnc3[nH]cc(-c4c(C)nn(Cc5cc(F)cc(F)c5)c4C)c3c2)ccc1OC` [Example 21, (3-(1-(3,5-difluorobenzyl)-3,5-dimethyl-1H-pyrazol-4-yl)-1H-pyrrolo[2,3-b]pyridin-5-yl)-2-methoxy-N-methylbenzenesulfonamide], the IC50 is reported as under 50 nM, the inhibition at 0.1 µM is reported as 82% and the inhibition at 1 µM is reported as 96%.
Work on `COc1ccc(-c2cnc3[nH]cc(-c4c(C)nn(Cc5cc(F)ccc5F)c4C)c3c2)cc1NS(C)(=O)=O` [Example 22, N-(5-(3-(1-(2,5-difluorobenzyl)-3,5-dimethyl-1H-pyrazol-4-yl)-1H-pyrrolo[2,3-b]pyridin-5-yl)-2-methoxyphenyl)methanesulfonamide] yielded an IC50 of under 50 nM, an inhibition at 0.1 µM of 62% and an inhibition at 1 µM of 87%.
In the case of `Cc1nn(Cc2cccc(F)c2)c(C)c1-c1c[nH]c2ncc(-c3ccc(OCCN(C)C)c(NS(C)(=O)=O)c3)cc12` [Example 23, N-(2-(2-(dimethylamino)ethoxy)-5-(3-(1-(3-fluorobenzyl)-3,5-dimethyl-1H-pyrazol-4-yl)-1H-pyrrolo[2,3-b]pyridin-5-yl)phenyl)methanesulfonamide], the IC50 is reported as 50 to 250 nM, the inhibition at 0.1 µM is reported as 73% and the inhibition at 1 µM is reported as 99%.
Work on `Cc1nn(Cc2cccc(F)c2)c(C)c1-c1c[nH]c2ncc(-c3ccc(OCCO)c(NS(C)(=O)=O)c3)cc12` [Example 24, N-(5-(3-(1-(3-fluorobenzyl)-3,5-dimethyl-1H-pyrazol-4-yl)-1H-pyrrolo[2,3-b]pyridin-5-yl)-2-(2-hydroxyethoxyl)phenyl)methanesulfonamide] yielded an IC50 of under 50 nM, an inhibition at 0.1 µM of 53% and an inhibition at 1 µM of 96%.
`Cc1nn(Cc2cccc(F)c2)c(C)c1-c1c[nH]c2ncc(-c3ccc(OCCCO)c(NS(C)(=O)=O)c3)cc12` [Example 25, N-(5-(3-(1-(3-fluorobenzyl)-3,5-dimethyl-1H-pyrazol-4-yl)-1H-pyrrolo[2,3-b]pyridin-5-yl)-2-(3-hydroxypropoxyl)phenyl)methanesulfonamide] showed an IC50 of under 50 nM, an inhibition at 0.1 µM of 86% and an inhibition at 1 µM of 93%.
